Measured values reported in publication PMC3597730, “Novel Phenolic Inhibitors of Small/Intermediate-Conductance Ca^2+-Activated K^+ Channels, KCa3.1 and KCa2.3” (PLoS ONE, 2013).
Several values for one entry are separate records, joined by “and”; a condition that tells them apart may be missing. Equal values may be shown once. Entries after “also recorded” stand apart in the source; their conditions may differ. Read-outs that look alike come from different tables or passages of the source.

Key:
[1] = molecular target: T1, KCa3.1 channels in 3T3 fibroblasts (Mus musculus, UniProt O89109); assay: Whole-cell patch-clamp of KCa3.1 currents in 3T3 fibroblasts; type: cell-based; details: for remaining activity at 10 µM: read-out: % of control at 10 µM; for KCa3.1 blocking effect (in words) / EC50: whole-cell; for KCa3.1 blocking effect (in words): concentrations up to 50 µM as in Table 1; for remaining activity at 50 µM: compound 50 µM, read-out: % of control at 50 µM; for remaining activity at 1 µM: read-out: % of control at 1 µM
T1 construct: KCa3.1 channels in 3T3 fibroblasts; endogenous in cells; host or cells: 3T3-L1 mouse embryonic fibroblasts

[2] = molecular target: T2, hKCa2.3 (Homo sapiens, UniProt Q9UGI6); assay: Whole-cell patch-clamp of hKCa2.3 in COS7 cells; type: cell-based; details: for remaining activity at 1 µM: COS-7, hKCa2.3, compound 1 µM, mean ± SEM, n ≥ 3, read-out: % of control at 1 µM; for KCa2.3 blocking effect (in words): micromolar concentrations
T2 construct: expressed in transfected cells; host or cells: COS7
T2 sequence (Q9UGI6 whole entry): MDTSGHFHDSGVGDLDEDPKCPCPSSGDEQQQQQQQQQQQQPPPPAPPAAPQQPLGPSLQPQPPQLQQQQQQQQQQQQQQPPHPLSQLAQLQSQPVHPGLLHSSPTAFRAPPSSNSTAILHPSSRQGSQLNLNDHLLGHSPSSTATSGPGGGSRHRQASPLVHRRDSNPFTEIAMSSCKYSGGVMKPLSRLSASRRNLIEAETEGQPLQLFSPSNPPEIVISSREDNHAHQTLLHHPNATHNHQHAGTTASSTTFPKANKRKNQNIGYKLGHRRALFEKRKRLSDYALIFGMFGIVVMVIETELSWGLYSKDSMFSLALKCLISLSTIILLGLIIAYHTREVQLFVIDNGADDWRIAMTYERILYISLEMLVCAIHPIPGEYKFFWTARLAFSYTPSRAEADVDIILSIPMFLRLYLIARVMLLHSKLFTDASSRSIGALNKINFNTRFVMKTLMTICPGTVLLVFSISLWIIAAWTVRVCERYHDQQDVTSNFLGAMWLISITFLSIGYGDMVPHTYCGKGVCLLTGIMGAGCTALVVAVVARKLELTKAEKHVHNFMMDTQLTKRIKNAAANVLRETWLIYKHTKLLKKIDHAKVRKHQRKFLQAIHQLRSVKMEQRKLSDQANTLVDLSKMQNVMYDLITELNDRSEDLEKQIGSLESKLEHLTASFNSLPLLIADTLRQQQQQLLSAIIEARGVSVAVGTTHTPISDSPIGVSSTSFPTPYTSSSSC

[3] = molecular target: T3, cloned human KCa3.1 channel (Homo sapiens, UniProt O15554); assay: Inside-out patch recordings from hKCa3.1-overexpressing HEK293 cells; type: biochemical; details: inside-out patches; compound 1 µM
T3 construct: expressed in transfected cells; gift of Khaled Houamed, University of Chicago

[4] = molecular target: T4, hKv1.2 (Homo sapiens, UniProt P16389); assay: Whole-cell patch-clamp of cloned hKv1.2; type: cell-based; details: for remaining activity at 1 µM: hKv1.2, compound 1 µM, read-out: % of control at 1 µM
T4 construct: expressed in transfected cells; host or cells: B82 murine fibroblasts (Methods)
T4 sequence (P16389 whole entry): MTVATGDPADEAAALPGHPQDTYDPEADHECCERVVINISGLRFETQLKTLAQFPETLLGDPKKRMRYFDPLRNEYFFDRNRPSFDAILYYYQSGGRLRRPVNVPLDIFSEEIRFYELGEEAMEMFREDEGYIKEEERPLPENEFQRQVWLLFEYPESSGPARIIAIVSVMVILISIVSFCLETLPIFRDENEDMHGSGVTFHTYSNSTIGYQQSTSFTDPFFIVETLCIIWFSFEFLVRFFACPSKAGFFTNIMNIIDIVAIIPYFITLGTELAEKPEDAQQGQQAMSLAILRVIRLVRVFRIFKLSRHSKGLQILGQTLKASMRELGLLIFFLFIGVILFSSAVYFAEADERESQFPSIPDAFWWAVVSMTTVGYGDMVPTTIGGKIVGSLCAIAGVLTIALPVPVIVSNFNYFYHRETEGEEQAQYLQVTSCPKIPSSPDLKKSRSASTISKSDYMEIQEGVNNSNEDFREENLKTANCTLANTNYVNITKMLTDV

[5] = test system: mixed KCa3.1 and KCa2.3 currents in PCAEC; assay: Whole-cell patch-clamp of KCa currents in porcine coronary artery endothelial cells; type: cell-based; details: whole-cell, compound 1 µM
[6] = KCa3.1 whole-cell current, 3T3 fibroblasts, 1 µM free Ca2+ in pipette, compound 10 µM, mean ± SEM, n ≥3
[7] = KCa3.1 whole-cell current, 3T3 fibroblasts, 1 µM free Ca2+ in pipette, mean ± SEM, n ≥3
[8] = KCa3.1 whole-cell current, 3T3 fibroblasts, 1 µM free Ca2+ in pipette, compound 1 µM, mean ± SEM, n ≥3
[9] = EC50 of KCa3.1 inhibition, 3T3 fibroblasts
[10] = 3T3 fibroblasts, read-out: EC50 of KCa3.1 inhibition

| Compound | remaining activity at 10 µM [1, 6] | KCa3.1 blocking effect (in words) ([1]; 3T3 fibroblasts) | remaining activity at 50 µM [1, 7] | also measured |
| --- | --- | --- | --- | --- |
| O=C(OC[C@H]1O[C@@H](OC(=O)c2cc(O)c(O)c(O)c2)[C@H](OC(=O)c2cc(O)c(O)c(O)c2)[C@@H](OC(=O)c2cc(O)c(O)c(O)c2)[C@@H]1OC(=O)c1cc(O)c(O)c(O)c1)c1cc(O)c(O)c(O)c1 [1,2,3,4,6-pentagalloyl glucose, [(2S,3R,4S,5R,6R)-2,3,5-tris[(3,4,5-trihydroxybenzoyl)oxy]-6-[(3,4,5-trihydroxybenzoyl)oxymethyl]oxan-4-yl] 3,4,5-trihydroxybenzoate] | 102 ± 6% | no |  |  |
| CC(=O)Oc1ccccc1C(=O)O [2-acetyloxybenzoic acid, reference compound] | 108 ± 5% | no effect | 104 ± 7% |  |
| O=C(/C=C/c1ccc(O)c(O)c1)OCCc1ccccc1 [Caffeic acid phenethyl ester, 2-phenylethyl (E)-3-(3,4-dihydroxyphenyl)propenoate] | 94 ± 6% | no |  |  |
| COc1cc(C(=O)OCc2cc(COC(=O)c3ccc(O)c(OC)c3)cc(COC(=O)c3ccc(O)c(OC)c3)c2)ccc1O [Compound 13a, [3,5-bis[(4-hydroxy-3-methoxy-benzoyl)oxymethyl]phenyl]methyl4-hydroxy-3-methoxy-benzoate] |  |  |  | remaining activity at 1 µM [2]: 98 ± 1%; KCa2.3 blocking effect (in words) [2]: no blocking effects; remaining activity at 1 µM [1, 8]: 78 ± 6%; hKCa3.1 blocking effect (in words) [3]: no or minor blocking effects; also recorded: did not block; block of hKv1.2 currents ([4]; 1 µM): 50%; remaining activity at 1 µM [4]: 46 ± 3% |
| O=C(OCc1cc(COC(=O)c2ccc(O)c(Cl)c2)cc(COC(=O)c2ccc(O)c(Cl)c2)c1)c1ccc(O)c(Cl)c1 [Compound 13c, [3,5-bis[(3-chloro-4-hydroxy-benzoyl)oxymethyl]phenyl]methyl3-chloro-4-hydroxy-benzoate] |  | weak to moderate blocking efficiency |  | remaining activity at 1 µM [2]: 92 ± 4%; KCa2.3 blocking effect (in words) [2]: no blocking effects; remaining activity at 1 µM [1, 8]: 61 ± 17%; hKCa3.1 blocking effect (in words) [3]: no or minor blocking effects; also recorded: did not block; hKv1.2 blocking effect (in words) ([4]; flufenamic acid and caffeic acid 10 and 50 µM, 13c 1 µM): no effect; remaining activity at 1 µM [4]: 104 ± 3% |
| COc1cc(/C=C/C(=O)O)ccc1O [Ferulic Acid, (E)-3-(4-hydroxy-3-methoxyphenyl)propenoic acid] | 87 ± 8% |  | 32 ± 4% | EC50 [1, 9]: > 10 µM |
| O=C(O)c1cc(O)c(O)c(O)c1 [Gallic acid, 3,4,5-trihydroxybenzoic acid] | 101 ± 6% | weak or no blocking effects and no |  |  |
| OCCc1ccc(O)c(O)c1 [Hydroxytyrosol] | 108 ± 15% | weak or no blocking effects and no |  | remaining activity at 1 µM [1, 8]: 117 ± 9% |
| Cc1cccc(Nc2ccccc2C(=O)O)c1C [Mefenamic Acid, 2-((2,3-dimethylphenyl)amino)benzoic acid, reference compound] | 136 ± 28% | no blocking effects |  | remaining activity at 1 µM [1, 8]: 117 ± 4% |
| Nc1ccc(O)c(C(=O)O)c1 [Mesalamine, 5-amino-2-hydroxybenzoic acid, reference compound] | 53 ± 7% |  | 46 ± 3% | remaining activity at 1 µM [1, 8]: 72 ± 6%; EC50 [1, 10]: ≥ 10 µM and 26 µM |
| NC(=O)C[S+]([O-])C(c1ccccc1)c1ccccc1 (stereo not shown) [Modafinil, 2-benzhydrylsulfinylacetamide, reference compound] |  |  |  | EC50 [1, 9]: > 1 µM; remaining activity at 10 µM [1]: 33 ± 6% |
| O=C(O)c1cccnc1Nc1cccc(C(F)(F)F)c1 [Niflumic Acid, reference compound] | 106 ± 7% | no blocking activity; also recorded: no blocking effects | 81 ± 4% |  |
| Cc1ccc(=O)n(-c2ccccc2)c1 [Pirfenidone, methyl-1-phenylpyridin-2(1H)-one, reference compound] | 98 ± 5% | no effects | 99 ± 14% |  |
| Oc1ccc(/C=C/c2cc(O)cc(O)c2)cc1 [Resveratrol, 5-[(E)-2-(4-Hydroxyphenyl)vinyl]benzene-1,3-diol] |  |  |  | EC50 [1, 10]: 10 µM and ~10 µM and 1 to 10 µM |
| Clc1ccccc1C(c1ccccc1)(c1ccccc1)n1cccn1 [TRAM-34, 1-[(2-chlorophenyl) (diphenyl)methyl]-1H-pyrazole, reference compound] |  | completely inhibited |  | remaining activity at 1 µM [1]: 1 ± 1%; KCa current, % of control [5]: 58±4% |
| c1cc2cc(c1)C[n+]1ccc(c3ccccc31)NCc1ccc(cc1)CNc1cc[n+](c3ccccc13)C2 [UCL1684, 6,10-diaza-3(1,3),8(1,4)-dibenzena-1,5(1,4)-diquinolinacyclodecaphane, reference compound] |  |  |  | % of control at 100 nM ([2]; hKCa2.3 current pre-activated by 1 µM SKA-31, n = 4): 2±1% |
| COc1cc(C(=O)O)ccc1O [Vanillic Acid, 4-hydroxy-3-methoxybenzoic acid] | 78 ± 11% | weak or no blocking effects; also recorded: Weak inhibition | 46 ± 12% | EC50 [1, 9]: > 10 µM |
